Measured values published in paper PMC4156793 (Vascular Cell, 2014).
Marks after values point to notes of the source that are not given here.

What was measured:
[1] = molecular target: T1, VEGFR1 (FLT1) (Homo sapiens, UniProt P17948); test: In vitro kinase assay VEGFR1 (FLT1); type: biochemical
T1 construct: purchased Carna Biosciences, Inc. (Kobe, Japan)
Procedure: (§1) Tyrosine kinase assays were performed by an ELISA and Off-chip Mobility Shift Assay (MSA) by Carna Biosciences, Inc. (Kobe, Japan).

[2] = molecular target: T2, VEGFR3 (FLT4) (Homo sapiens, UniProt P35916); test: In vitro kinase assay VEGFR3 (FLT4); type: biochemical
T2 construct: purchased Carna Biosciences, Inc. (Kobe, Japan)
T2 sequence (P35916 25-1363): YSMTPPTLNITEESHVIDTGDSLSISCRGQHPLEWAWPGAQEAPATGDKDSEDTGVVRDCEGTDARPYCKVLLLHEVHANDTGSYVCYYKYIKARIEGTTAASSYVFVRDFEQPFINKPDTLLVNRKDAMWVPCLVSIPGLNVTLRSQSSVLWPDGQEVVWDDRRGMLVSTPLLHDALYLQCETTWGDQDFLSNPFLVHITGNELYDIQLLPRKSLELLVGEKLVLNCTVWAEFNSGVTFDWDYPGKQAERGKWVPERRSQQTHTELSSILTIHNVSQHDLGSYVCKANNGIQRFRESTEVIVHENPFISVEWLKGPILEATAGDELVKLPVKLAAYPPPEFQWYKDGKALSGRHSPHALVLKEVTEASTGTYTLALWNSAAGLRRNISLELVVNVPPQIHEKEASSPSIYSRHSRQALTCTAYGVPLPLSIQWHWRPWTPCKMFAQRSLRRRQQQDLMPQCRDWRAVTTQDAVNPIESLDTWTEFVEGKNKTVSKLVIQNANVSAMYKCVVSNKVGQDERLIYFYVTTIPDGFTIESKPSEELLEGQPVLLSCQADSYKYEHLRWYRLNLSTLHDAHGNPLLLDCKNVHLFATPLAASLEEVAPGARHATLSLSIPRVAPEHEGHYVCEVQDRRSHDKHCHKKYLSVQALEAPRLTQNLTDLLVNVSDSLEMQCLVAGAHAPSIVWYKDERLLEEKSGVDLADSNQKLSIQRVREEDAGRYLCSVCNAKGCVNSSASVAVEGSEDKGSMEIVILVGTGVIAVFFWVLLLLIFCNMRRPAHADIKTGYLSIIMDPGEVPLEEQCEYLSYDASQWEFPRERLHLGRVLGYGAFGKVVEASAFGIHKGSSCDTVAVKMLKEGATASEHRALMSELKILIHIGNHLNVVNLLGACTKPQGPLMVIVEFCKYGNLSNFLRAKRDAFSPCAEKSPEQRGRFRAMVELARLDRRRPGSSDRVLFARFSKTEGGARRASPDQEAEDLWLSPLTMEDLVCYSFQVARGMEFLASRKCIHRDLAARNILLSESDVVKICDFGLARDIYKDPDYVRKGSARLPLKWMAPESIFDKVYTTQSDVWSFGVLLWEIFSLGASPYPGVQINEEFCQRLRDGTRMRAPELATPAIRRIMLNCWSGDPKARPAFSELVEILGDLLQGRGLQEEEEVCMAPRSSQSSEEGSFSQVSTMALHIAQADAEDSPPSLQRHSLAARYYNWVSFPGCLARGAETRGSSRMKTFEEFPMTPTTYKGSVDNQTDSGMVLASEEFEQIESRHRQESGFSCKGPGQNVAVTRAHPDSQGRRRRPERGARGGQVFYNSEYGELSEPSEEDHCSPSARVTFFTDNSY
Procedure: as §1

[3] = molecular target: T3, FGFR1 (Homo sapiens, UniProt P11362); test: In vitro kinase assay FGFR1; type: biochemical
T3 construct: purchased Carna Biosciences, Inc. (Kobe, Japan)
T3 sequence (P11362 22-822): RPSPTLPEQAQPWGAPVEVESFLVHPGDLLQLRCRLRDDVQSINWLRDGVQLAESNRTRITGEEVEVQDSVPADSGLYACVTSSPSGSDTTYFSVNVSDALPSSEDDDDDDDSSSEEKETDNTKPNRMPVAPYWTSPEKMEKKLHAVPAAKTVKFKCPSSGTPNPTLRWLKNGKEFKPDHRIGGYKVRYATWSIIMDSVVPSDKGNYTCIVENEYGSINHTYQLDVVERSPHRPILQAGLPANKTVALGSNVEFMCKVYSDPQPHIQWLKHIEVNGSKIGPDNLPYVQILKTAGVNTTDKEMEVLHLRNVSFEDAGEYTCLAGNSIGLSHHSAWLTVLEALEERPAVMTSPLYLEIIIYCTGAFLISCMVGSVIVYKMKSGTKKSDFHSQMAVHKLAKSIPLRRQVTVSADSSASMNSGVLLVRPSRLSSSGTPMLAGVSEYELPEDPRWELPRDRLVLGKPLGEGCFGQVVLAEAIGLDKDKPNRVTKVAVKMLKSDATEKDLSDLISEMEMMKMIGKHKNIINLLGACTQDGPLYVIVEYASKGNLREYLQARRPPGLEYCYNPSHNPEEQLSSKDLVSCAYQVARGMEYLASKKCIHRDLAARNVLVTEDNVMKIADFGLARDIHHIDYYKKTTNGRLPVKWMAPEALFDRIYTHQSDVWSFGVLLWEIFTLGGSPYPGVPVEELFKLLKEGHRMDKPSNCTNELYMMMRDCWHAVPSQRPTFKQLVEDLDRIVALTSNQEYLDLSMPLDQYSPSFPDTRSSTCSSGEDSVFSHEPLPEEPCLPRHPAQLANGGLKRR
Procedure: as §1

[4] = molecular target: T4, FGFR2 (Homo sapiens, UniProt P21802); test: In vitro kinase assay FGFR2; type: biochemical
T4 construct: purchased Carna Biosciences, Inc. (Kobe, Japan)
T4 sequence (P21802 22-821): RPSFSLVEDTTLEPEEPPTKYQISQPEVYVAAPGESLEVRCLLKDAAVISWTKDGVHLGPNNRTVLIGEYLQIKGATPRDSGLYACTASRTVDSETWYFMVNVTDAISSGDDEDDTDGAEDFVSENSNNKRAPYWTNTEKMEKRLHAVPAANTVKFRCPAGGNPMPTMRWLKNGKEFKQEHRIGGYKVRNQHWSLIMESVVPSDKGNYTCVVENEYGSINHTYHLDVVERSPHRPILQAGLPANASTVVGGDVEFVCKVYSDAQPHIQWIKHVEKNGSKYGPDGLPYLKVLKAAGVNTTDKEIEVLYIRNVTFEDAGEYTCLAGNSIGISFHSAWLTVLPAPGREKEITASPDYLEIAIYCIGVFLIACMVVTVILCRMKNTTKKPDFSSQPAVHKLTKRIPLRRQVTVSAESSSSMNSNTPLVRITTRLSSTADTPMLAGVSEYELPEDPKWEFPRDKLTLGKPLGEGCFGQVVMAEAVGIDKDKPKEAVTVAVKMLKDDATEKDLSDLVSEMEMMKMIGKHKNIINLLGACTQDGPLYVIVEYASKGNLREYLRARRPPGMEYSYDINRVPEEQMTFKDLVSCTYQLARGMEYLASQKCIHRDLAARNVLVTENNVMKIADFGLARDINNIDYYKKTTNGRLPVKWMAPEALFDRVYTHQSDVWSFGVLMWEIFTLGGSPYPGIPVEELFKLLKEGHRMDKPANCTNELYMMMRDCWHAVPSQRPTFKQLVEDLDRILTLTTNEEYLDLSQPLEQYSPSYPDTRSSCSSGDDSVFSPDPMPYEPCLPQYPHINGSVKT
Procedure: as §1

[5] = molecular target: T5, FGFR3 (Homo sapiens, UniProt P22607); test: In vitro kinase assay FGFR3; type: biochemical
T5 construct: purchased Carna Biosciences, Inc. (Kobe, Japan)
T5 sequence (P22607 23-806): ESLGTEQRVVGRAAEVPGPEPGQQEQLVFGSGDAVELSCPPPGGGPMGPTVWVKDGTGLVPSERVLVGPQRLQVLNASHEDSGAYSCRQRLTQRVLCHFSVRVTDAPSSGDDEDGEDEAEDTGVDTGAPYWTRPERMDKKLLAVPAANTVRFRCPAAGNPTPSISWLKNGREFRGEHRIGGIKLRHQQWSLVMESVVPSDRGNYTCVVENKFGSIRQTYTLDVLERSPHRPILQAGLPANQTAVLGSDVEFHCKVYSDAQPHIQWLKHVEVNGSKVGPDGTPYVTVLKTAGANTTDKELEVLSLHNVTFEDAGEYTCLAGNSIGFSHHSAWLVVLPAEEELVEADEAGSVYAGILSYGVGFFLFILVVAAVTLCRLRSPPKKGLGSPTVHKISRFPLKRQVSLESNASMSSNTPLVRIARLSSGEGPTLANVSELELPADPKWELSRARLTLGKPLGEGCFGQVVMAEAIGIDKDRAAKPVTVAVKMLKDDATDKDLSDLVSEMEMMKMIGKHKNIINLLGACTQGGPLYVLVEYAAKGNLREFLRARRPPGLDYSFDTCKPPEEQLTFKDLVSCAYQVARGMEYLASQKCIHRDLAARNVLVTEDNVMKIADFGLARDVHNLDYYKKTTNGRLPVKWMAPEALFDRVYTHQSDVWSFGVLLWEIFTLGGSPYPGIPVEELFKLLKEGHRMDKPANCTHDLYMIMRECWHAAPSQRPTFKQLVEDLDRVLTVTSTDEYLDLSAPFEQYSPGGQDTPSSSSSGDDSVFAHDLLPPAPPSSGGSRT
Procedure: as §1

[6] = molecular target: T6, KIT (Homo sapiens, UniProt P10721); test: In vitro kinase assay KIT; type: biochemical
T6 construct: purchased Carna Biosciences, Inc. (Kobe, Japan)
T6 sequence (P10721 26-976): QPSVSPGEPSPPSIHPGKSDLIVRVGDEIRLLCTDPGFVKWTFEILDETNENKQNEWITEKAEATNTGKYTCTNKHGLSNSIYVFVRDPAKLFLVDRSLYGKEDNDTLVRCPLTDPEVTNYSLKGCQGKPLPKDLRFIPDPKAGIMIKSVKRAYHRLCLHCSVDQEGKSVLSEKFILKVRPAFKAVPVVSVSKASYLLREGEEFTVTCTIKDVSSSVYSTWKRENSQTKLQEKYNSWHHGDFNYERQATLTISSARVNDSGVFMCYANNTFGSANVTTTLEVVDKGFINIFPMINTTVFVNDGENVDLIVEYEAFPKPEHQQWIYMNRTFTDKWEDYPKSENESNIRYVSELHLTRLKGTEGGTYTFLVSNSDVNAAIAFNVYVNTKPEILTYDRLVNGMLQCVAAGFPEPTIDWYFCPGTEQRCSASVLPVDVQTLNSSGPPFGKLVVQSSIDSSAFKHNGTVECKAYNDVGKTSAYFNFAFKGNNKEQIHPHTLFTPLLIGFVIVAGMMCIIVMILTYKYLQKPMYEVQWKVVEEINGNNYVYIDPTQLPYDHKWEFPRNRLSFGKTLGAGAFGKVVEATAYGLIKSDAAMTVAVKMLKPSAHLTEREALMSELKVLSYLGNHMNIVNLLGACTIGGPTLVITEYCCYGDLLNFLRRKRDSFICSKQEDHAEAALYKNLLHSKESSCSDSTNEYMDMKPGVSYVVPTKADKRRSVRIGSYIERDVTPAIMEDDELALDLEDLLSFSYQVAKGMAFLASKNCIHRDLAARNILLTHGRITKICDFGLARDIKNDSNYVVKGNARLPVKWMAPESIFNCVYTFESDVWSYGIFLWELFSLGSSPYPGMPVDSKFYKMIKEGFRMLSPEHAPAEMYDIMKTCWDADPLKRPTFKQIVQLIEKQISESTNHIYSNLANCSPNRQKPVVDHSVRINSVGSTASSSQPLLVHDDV

[7] = system: HUVECs; test: VEGF-induced proliferation of HUVECs; type: cell-based; conditions: Homo sapiens, HUVEC, 72 h; VEGF 20 ng/mL, 3 days, WST-1
Procedure: (§2) Tumor cells were plated at 1 to 2 × 10^3 cells/well on 96-well plates in 0.1 ml of RPMI 1640 containing 10% FBS. […] The HUVEC proliferation assay were performed by a method described previously. […] After incubation for 3 days, cell viability was determined by measuring the absorbance of WST-1 reagent (DOJINDO, Kumamoto, Japan). Percent inhibition of cell growth was determined by the formula below: Inhibition (%) = Mean value of OD of control wells - OD of treated wells * 100/Mean value of OD of control wells. Each value is expressed as the mean. […] All experiments were done in either duplicate or quadruplicate.

[8] = system: HUVECs; test: VEGF-induced sandwich tube formation (sTF) of HUVECs; type: cell-based; conditions: Homo sapiens, HUVEC, 96 h; sTF assay, EGF 10 ng/mL with VEGF 20 ng/mL, 4 days
Procedure: (§3) In vitro sandwich tube formation (sTF) assay, HUVECs in SFM containing EGF (10 ng/mL) with VEGF (20 ng/mL) or FGF2 (20 ng/ml) were plated onto the 1st layer of collagen gel (Nitta Gelatin, Tokyo, Japan) at 1.0 × 10^5 cells in 24-well plates and a 2nd layer of collagen gel was added onto the HUVECs. […] After 4 days, MTT solution was added and photomicrographs of tube formation were taken with a light microscope. The tube length of capillaries was measured using image analysis (Angiogenesis Image Analyzer, ver. 1.04; Kurabo, Osaka, Japan).

[9] = system: HUVECs; test: FGF-2 induced proliferation of HUVECs; type: cell-based; conditions: Homo sapiens, HUVEC, 72 h; FGF2 20 ng/mL, 3 days, WST-1
Procedure: as §2

[10] = system: HUVECs; test: FGF-2 induced sandwich tube formation (sTF) of HUVECs; type: cell-based; conditions: Homo sapiens, HUVEC, 96 h; sTF assay, EGF 10 ng/mL with FGF2 20 ng/ml, 4 days
Procedure: as §3

[11] = system: KP-1/VEGF transfectants; test: In vitro growth of KP-1/VEGF transfectants; type: cell-based; conditions: Homo sapiens
Procedure: as §2

[12] = system: MDA-MB 435 (Melanoma); test: Tumor cell proliferation assay (MTT), MDA-MB 435; type: cell-based; conditions: Homo sapiens, read-out: IC50 in vitro anti-proliferative activity
Procedure: (§4) Tumor cells were plated at 1 to 2 × 10^3 cells/well on 96-well plates in 0.1 ml of RPMI 1640 containing 10% FBS. […] The HUVEC proliferation assay were performed by a method described previously. […] Percent inhibition of cell growth was determined by the formula below: Inhibition (%) = Mean value of OD of control wells - OD of treated wells * 100/Mean value of OD of control wells. Each value is expressed as the mean. […] All experiments were done in either duplicate or quadruplicate.

[13] = system: MIApaca-II (Pancreas); test: Tumor cell proliferation assay (MTT), MIApaca-II; type: cell-based; conditions: Homo sapiens, read-out: IC50 in vitro anti-proliferative activity
Procedure: as §4

[14] = system: H460 (Lung); test: Tumor cell proliferation assay (MTT), H460; type: cell-based; conditions: Homo sapiens, NCI-H460; read-out: IC50 in vitro anti-proliferative activity
Procedure: as §4

[15] = system: SK-OV-3 (Ovary); test: Tumor cell proliferation assay (MTT), SK-OV-3; type: cell-based; conditions: Homo sapiens, read-out: IC50 in vitro anti-proliferative activity
Procedure: as §4

[16] = system: Colo205 (Colon); test: Tumor cell proliferation assay (MTT), Colo205; type: cell-based; conditions: Homo sapiens, COLO 205, read-out: IC50 in vitro anti-proliferative activity
Procedure: as §4

[17] = system: A431 (Epidermoid); test: Tumor cell proliferation assay (MTT), A431; type: cell-based; conditions: Homo sapiens, A-431, read-out: IC50 in vitro anti-proliferative activity
Procedure: as §4

[18] = system: DU145 (Prostate); test: Tumor cell proliferation assay (MTT), DU145; type: cell-based; conditions: Homo sapiens, DU-145, read-out: IC50 in vitro anti-proliferative activity
Procedure: as §4

[19] = system: MDA-MB 435 (Melanoma) xenograft; test: Subcutaneous xenograft model, MDA-MB 435; type: in vivo, mouse; conditions: MDA-MB 435 xenograft
Procedure: (§5) Tumor cells were injected subcutaneously into the right flank region of 7-week-old nude mice. […] Tumor diameters were measured with a vernier caliper and body weight was measured twice weekly. The tumor volume (mm^3) was calculated using the formula: length (mm) × width (mm)^2 × 1/2. […] When the tumor volume was reduced, the ΔT/C values were calculated by the following formula: ΔT/C (%) = (TVn - TV1)/TV1 × 100, where TVn is the tumor volume of treated mice at day n. The number of mice is ten for control group in Table 1 and five for each group in other experiments. Mice in control group were treated with vehicle.

[20] = system: MIApaca-II (Pancreas) xenograft; test: Subcutaneous xenograft model, MIApaca-II; type: in vivo, mouse
Procedure: as §5

[21] = system: H460 (Lung) xenograft; test: Subcutaneous xenograft model, H460; type: in vivo, mouse
Procedure: as §5

[22] = system: SK-OV-3 (Ovary) xenograft; test: Subcutaneous xenograft model, SK-OV-3; type: in vivo, mouse; conditions: SK-OV-3 xenograft
Procedure: as §5

[23] = system: Colo205 (Colon) xenograft; test: Subcutaneous xenograft model, Colo205; type: in vivo, mouse
Procedure: as §5

[24] = system: A431 (Epidermoid) xenograft; test: Subcutaneous xenograft model, A431; type: in vivo, mouse
Procedure: as §5

[25] = system: DU145 (Prostate) xenograft; test: Subcutaneous xenograft model, DU145; type: in vivo, mouse
Procedure: as §5

[26] = Tolerability in tumor-bearing nude mice; type: in vivo
Procedure: as §5

[27] = system: SEKI model; test: Subcutaneous xenograft model, SEKI; type: in vivo, mouse; conditions: 100 mg/kg orally twice daily for 7 days
Procedure: as §5
Each group consisted of 5 mice. […] The relationship between the antitumor activity and MVD is shown in (B), and that between the antitumor activity and the % of pericyte coverage of vessels is shown in (C). Each symbol (○) indicates the mean of MVD or pericyte coverage in each tumor xenograft model. (D) Vascular score in the lenvatinib-sensitive and –relatively resistant groups. The vascular score was the sum of the MVD and pericyte coverage scores.

[28] = system: VEGF-driven in vivo angiogenesis (KP-1/VEGF transfectants); test: Mouse dorsal air sac (DAS) assay, KP-1/VEGF; conditions: 100 and 300 mg/kg, orally once daily for 4 days
Procedure: (§6) An in vivo angiogenesis assay in mice was performed as described previously with minor changes. Millipore chambers (Millipore, Bedford, MA) were packed with 1.0 × 10^7 KP-1 mock, KP-1/VEGF or KP-1/FGF transfectants and transplanted into the dorsal air sac of C57BL/6 mice (n = 3–5 each, with experiments performed in triplicate). For a pseudo-operation, collagen I gel was injected into the Millipore chambers. Photographs were taken 4 days after implantation.
(§7) (A) In vivo angiogenesis in mouse DAS assay. Angiogenesis was induced by overexpressed human VEGF121 (KP-1/VEGF) or mouse FGF4 (KP-1/FGF) in human pancreatic cancer KP-1 cells at the mouse dorsal skin. Representative photographs are shown. […] Compounds were administered orally once daily for 4 days at the indicated doses. Data are the mean ± std. *: p < 0.05 and **: p < 0.01 compared to vehicle.

[29] = system: FGF-driven in vivo angiogenesis (KP-1/FGF transfectants); test: Mouse dorsal air sac (DAS) assay, KP-1/FGF; conditions: 100 mg/kg, orally once daily for 4 days
Procedure: as §6, §7

[30] = system: FGFR-driven proliferation; conditions: read-out: IC50, FGFR-driven proliferation in cell assays; cited from earlier work
[31] = 1 mg/kg orally twice daily for 28 days
[32] = 3 mg/kg orally twice daily for 28 days
[33] = 10 mg/kg orally twice daily for 28 days
[34] = 30 mg/kg orally twice daily for 28 days
[35] = 100 mg/kg orally twice daily for 28 days
[36] = 1 mg/kg orally twice daily for 14 days
[37] = 3 mg/kg orally twice daily for 14 days
[38] = 10 mg/kg orally twice daily for 14 days
[39] = 30 mg/kg orally twice daily for 14 days
[40] = 100 mg/kg orally twice daily for 14 days

## COc1cc2nccc(Oc3ccc(NC(=O)NC4CC4)c(Cl)c3)c2cc1C(N)=O [lenvatinib, 4-[3-Chloro-4-(N’-cyclopropylureido)phenoxy]-7-methoxyquinoline-6-carboxamide]
[1]
  Ki: 1.3 nM
[2]
  Ki: 0.71 nM
[3]
  Ki: 22 nM
[4]
  Ki: 8.2 nM
[5]
  Ki: 15 nM
[6]
  Ki: 11 nM
[7]
  IC50: 3.4 nM
[8]
  IC50: 2.7 nM
[9]
  IC50: 410 nM
[10]
  IC50: 590 nM
[11]
  IC50: 19600 nM
[12]
  IC50: 24200 nM
[13]
  IC50: 33800 nM
[14]
  IC50: 26300 nM
[15]
  IC50: 26400 nM
[16]
  IC50: 27500 nM
[17]
  IC50: 30800 nM
[18]
  IC50: 30800 nM
[19]; [31]
  ΔTV (%) lenvatinib (mg/kg) 1: 55.7* %
[19]; [32]
  ΔTV (%) lenvatinib (mg/kg) 3: 56.9* %
[19]; [33]
  ΔTV (%) lenvatinib (mg/kg) 10: 40.2* %
[19]; [34]
  ΔTV (%) lenvatinib (mg/kg) 30: 21.2* %
[19]; [35]
  ΔTV (%) lenvatinib (mg/kg) 100: 25.7* %
[20]; [36]
  ΔTV (%) lenvatinib (mg/kg) 1: 56.1* %
[20]; [37]
  ΔTV (%) lenvatinib (mg/kg) 3: 49.9* %
[20]; [38]
  ΔTV (%) lenvatinib (mg/kg) 10: 30.1* %
[20]; [39]
  ΔTV (%) lenvatinib (mg/kg) 30: 15.3* %
[20]; [40]
  ΔTV (%) lenvatinib (mg/kg) 100: 12.5* %
[21]; [36]
  ΔTV (%) lenvatinib (mg/kg) 1: 65.4%
[21]; [37]
  ΔTV (%) lenvatinib (mg/kg) 3: 34.9* %
[21]; [38]
  ΔTV (%) lenvatinib (mg/kg) 10: 16.3* %
[21]; [39]
  ΔTV (%) lenvatinib (mg/kg) 30: 16.4* %
[21]; [40]
  ΔTV (%) lenvatinib (mg/kg) 100: -0.8* %
[22]; [36]
  ΔTV (%) lenvatinib (mg/kg) 1: 52.3* %
[22]; [37]
  ΔTV (%) lenvatinib (mg/kg) 3: 39.6* %
[22]; [38]
  ΔTV (%) lenvatinib (mg/kg) 10: 12.2* %
[22]; [39]
  ΔTV (%) lenvatinib (mg/kg) 30: 8.3* %
[22]; [40]
  ΔTV (%) lenvatinib (mg/kg) 100: -15.6* %
[23]; [36]
  ΔTV (%) lenvatinib (mg/kg) 1: 43.8* %
[23]; [37]
  ΔTV (%) lenvatinib (mg/kg) 3: 23.1* %
[23]; [38]
  ΔTV (%) lenvatinib (mg/kg) 10: 12.8* %
[23]; [39]
  ΔTV (%) lenvatinib (mg/kg) 30: -4.5* %
[23]; [40]
  ΔTV (%) lenvatinib (mg/kg) 100: -21.3* %
[24]; [36]
  ΔTV (%) lenvatinib (mg/kg) 1: 41.7%
[24]; [37]
  ΔTV (%) lenvatinib (mg/kg) 3: 29.4* %
[24]; [38]
  ΔTV (%) lenvatinib (mg/kg) 10: 0.0* %
[24]; [39]
  ΔTV (%) lenvatinib (mg/kg) 30: -7.5* %
[24]; [40]
  ΔTV (%) lenvatinib (mg/kg) 100: -32.9* %
[25]; [31]
  ΔTV (%) lenvatinib (mg/kg) 1: -7.5* %
[25]; [32]
  ΔTV (%) lenvatinib (mg/kg) 3: -42.2* %
[25]; [33]
  ΔTV (%) lenvatinib (mg/kg) 10: -65.4* %
[25]; [34]
  ΔTV (%) lenvatinib (mg/kg) 30: -72.0* %
[25]; [35]
  ΔTV (%) lenvatinib (mg/kg) 100: -78.6* %
[26]; 100 mg/kg twice daily for 4 weeks, observed in 3 out of 7 models
  Losses of body weights: < 10%
[26]; mouse, in vivo, oral, tumor xenograft models, read-out: Maximum tolerated dose (MTD)
  MTD at 4 weeks: 100 mg/kg
[27]
  Antitumor activity, SEKI model: no effect

## CNC(=O)c1cc(Oc2ccc(NC(=O)Nc3ccc(Cl)c(C(F)(F)F)c3)cc2)ccn1 [sorafenib, reference compound]
[28]
  Antiangiogenic activity, KP-1/VEGF DAS model: selective antiangiogenic activity
[29]
  Inhibition of FGF-driven in vivo angiogenesis, KP-1/FGF DAS assay: did not inhibit
[30]
  IC50: 2000 nM
